PubChem BioAssay AID330 (DTP/NCI, 2004)
“And” between values parts separate entries of the source, which are not always exact repeats. Equal entries are not always repeated. Inconclusive results and toxic doses are left out.

System: P388 leukemia ip, CD2F1 mice, survival T/C
Experiment: NCI In Vivo Anticancer Drug Screen. Data for tumor model P388 Leukemia (intraperitoneal) in CD2F1 (CDF1) mice
Details: endpoint: median survival time, higher = longer survival
How it was run: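 Mice carrying the transplanted tumor received test compound or vehicle. Survival was recorded in each group, and the value is the treated-group measurement divided by that of the vehicle-treated control group.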

[1] = dose: 50.0 mg/kg/injection, schedule: Q01DX009 (ip), vehicle: saline with Tween-80
[2] = dose: 60.0 mg/kg/injection, schedule: Q01DX005 (ip), vehicle: saline with Tween-80
[3] = dose: 120.0 mg/kg/injection, schedule: Q01DX005 (ip), vehicle: saline with Tween-80
[4] = dose: 240.0 mg/kg/injection, schedule: Q01DX005 (ip), vehicle: saline with Tween-80
[5] = dose: 50.0 mg/kg/injection, schedule: Q01DX005 (ip), vehicle: saline with Tween-80
[6] = dose: 100.0 mg/kg/injection, schedule: Q01DX005 (ip), vehicle: saline with Tween-80
[7] = dose: 60.0 mg/kg/injection, schedule: Q01DX005 (ip), vehicle: Klucel (hydroxypropylcellulose) (HPC)
[8] = dose: 120.0 mg/kg/injection, schedule: Q01DX005 (ip), vehicle: Klucel (hydroxypropylcellulose) (HPC)

## CCC1(c2ccnc3cc(Cl)ccc23)C(=O)NC(=O)NC1=O
dose: 50.0 mg/kg/injection, schedule: Q01DX009 (ip), vehicle: distilled water + alcohol
  T/C: 100 % of control
dose: 100.0 mg/kg/injection, schedule: Q01DX009 (ip), vehicle: distilled water + alcohol
  T/C: 98 % of control
dose: 200.0 mg/kg/injection, schedule: Q01DX009 (ip), vehicle: distilled water + alcohol
  T/C: 99 % of control

## Cn1c2c(c(=O)c3cc(O)ccc31)CC(C(C)(C)O)O2 (centres undefined)
dose: 50.0 mg/kg/injection, schedule: Q01DX005 (ip), vehicle: Klucel (hydroxypropylcellulose) (HPC)
  T/C: 104 % of control
dose: 100.0 mg/kg/injection, schedule: Q01DX005 (ip), vehicle: Klucel (hydroxypropylcellulose) (HPC)
  T/C: 105 % of control
dose: 200.0 mg/kg/injection, schedule: Q01DX005 (ip), vehicle: Klucel (hydroxypropylcellulose) (HPC)
  T/C: 104 % of control

## CCCC1CC[N-]CC1.CCCC1CC[N-]CC1.[Cl][Pt+2][Cl]
dose: 11.0 mg/kg/injection, schedule: Q01DX009 (ip), vehicle: saline with Tween-80
  T/C: 100 % of control
dose: 16.5 mg/kg/injection, schedule: Q01DX009 (ip), vehicle: saline with Tween-80
  T/C: 110 % of control
dose: 22.0 mg/kg/injection, schedule: Q01DX009 (ip), vehicle: saline with Tween-80
  T/C: 110 % of control
dose: 25.0 mg/kg/injection, schedule: Q01DX009 (ip), vehicle: saline with Tween-80
  T/C: 115 % of control
dose: 33.0 mg/kg/injection, schedule: Q01DX009 (ip), vehicle: saline with Tween-80
  T/C: 110 % of control
dose: 37.5 mg/kg/injection, schedule: Q01DX009 (ip), vehicle: saline with Tween-80
  T/C: 115 % of control
[1]
  T/C: 120 % of control

## Cc1ccc(C)c(NC(=O)CCC(=O)C(C)C(=O)c2ccccc2)c1 (centres undefined)
[2]
  T/C: 111 % of control
[3]
  T/C: 102 % of control
[4]
  T/C: 108 % of control

## CCCNNC(N)=S
dose: 12.5 mg/kg/injection, schedule: Q01DX009 (ip), vehicle: other
  T/C: 105 % of control
dose: 25.0 mg/kg/injection, schedule: Q01DX009 (ip), vehicle: other
  T/C: 105 % of control

## CCOC(=O)c1nn(C)c(=O)[nH]c1=O
[5]
  T/C: 99 % of control
[6]
  T/C: 100 % of control
dose: 200.0 mg/kg/injection, schedule: Q01DX005 (ip), vehicle: saline with Tween-80
  T/C: 100 % of control

## COC(=O)C(C(=O)OC)C(CC(=O)c1ccccc1)c1ccccc1 (centres undefined)
[1]
  T/C: 109 % of control
dose: 100.0 mg/kg/injection, schedule: Q01DX009 (ip), vehicle: saline with Tween-80
  T/C: 103 % of control
dose: 200.0 mg/kg/injection, schedule: Q01DX009 (ip), vehicle: saline with Tween-80
  T/C: 103 % of control

## CC(=O)Oc1cc(OC(C)=O)c2c(c1)C(=O)c1cc(C)cc(OC(C)=O)c1C2=O
dose: 100.0 mg/kg/injection, schedule: Q04DX002 (ip), vehicle: saline with Tween-80
  T/C: 90 % of control and 96 % of control
dose: 200.0 mg/kg/injection, schedule: Q04DX002 (ip), vehicle: saline with Tween-80
  T/C: 90 % of control
dose: 400.0 mg/kg/injection, schedule: Q04DX002 (ip), vehicle: saline with Tween-80
  T/C: 90 % of control

## COc1ccc(Cc2ccc3c(c2)OCO3)cc1C
dose: 50.0 mg/kg/injection, schedule: Q01DX005 (ip), vehicle: saline
  T/C: 104 % of control
dose: 100.0 mg/kg/injection, schedule: Q01DX005 (ip), vehicle: saline
  T/C: 104 % of control
dose: 200.0 mg/kg/injection, schedule: Q01DX005 (ip), vehicle: saline
  T/C: 111 % of control

## C[n+]1c(-c2cccc(OCCCCCCCCCCOc3cccc(-c4c5cc(N)ccc5c5ccc(N)cc5[n+]4C)c3)c2)c2cc(N)ccc2c2ccc(N)cc21
dose: 0.39 mg/kg/injection, schedule: Q01DX005 (ip), vehicle: water
  T/C: 168 % of control
dose: 0.78 mg/kg/injection, schedule: Q01DX005 (ip), vehicle: water
  T/C: 153 % of control and 168 % of control
dose: 0.78 mg/kg/injection, schedule: Q01DX009 (ip), vehicle: water
  T/C: 153 % of control
dose: 1.56 mg/kg/injection, schedule: Q01DX005 (ip), vehicle: water
  T/C: 174 % of control
dose: 1.56 mg/kg/injection, schedule: Q01DX009 (ip), vehicle: water
  T/C: 170 % of control
dose: 3.0 mg/kg/injection, schedule: Q01DX009 (ip), vehicle: water
  T/C: 169 % of control
dose: 3.12 mg/kg/injection, schedule: Q01DX009 (ip), vehicle: water
  T/C: 153 % of control
dose: 6.25 mg/kg/injection, schedule: Q01DX009 (ip), vehicle: water
  T/C: 122 % of control

## C=C1C(=O)OC2C(OC=O)CCCC12 (centres undefined)
[7]
  T/C: 100 % of control
[8]
  T/C: 103 % of control

## CCC1(O)C(=O)Nc2ccc(OC)cc2C1=O (centres undefined)
[7]
  T/C: 97 % of control
[8]
  T/C: 93 % of control
dose: 240.0 mg/kg/injection, schedule: Q01DX005 (ip), vehicle: Klucel (hydroxypropylcellulose) (HPC)
  T/C: 93 % of control

## COC1CC(C)(OC(C)=O)Cc2cc3c(c(OC(C)=O)c21)C(=O)c1c(OC(C)=O)cc2c(c1C3=O)OC1OC2(C)C(OC(C)=O)C(N(C)C)C1OC(C)=O (centres undefined)
dose: 1.25 mg/kg/injection, schedule: Q01DX009 (ip), vehicle: other
  T/C: 102 % of control
dose: 2.5 mg/kg/injection, schedule: Q01DX009 (ip), vehicle: other
  T/C: 112 % of control and 106 % of control
dose: 5.0 mg/kg/injection, schedule: Q01DX009 (ip), vehicle: other
  T/C: 105 % of control and 101 % of control
dose: 10.0 mg/kg/injection, schedule: Q01DX009 (ip), vehicle: other
  T/C: 114 % of control and 115 % of control
dose: 20.0 mg/kg/injection, schedule: Q01DX009 (ip), vehicle: other
  T/C: 121 % of control

## CCOC(=O)NC(NC(=O)OCC)c1ccc(C(NC(=O)OCC)NC(=O)OCC)cc1
dose: 100.0 mg/kg/injection, schedule: Q04DX003 (ip), vehicle: saline
  T/C: 99 % of control
dose: 200.0 mg/kg/injection, schedule: Q04DX003 (ip), vehicle: saline
  T/C: 90 % of control
dose: 400.0 mg/kg/injection, schedule: Q04DX003 (ip), vehicle: saline
  T/C: 89 % of control

## CCN(CC)CC.[CH-]1CCCCC1.[CH-]1CCCCC1.[CH3-].[Cl-].[Cl-].[Sn+4]
dose: 6.0 mg/kg/injection, schedule: Q01DX005 (ip), vehicle: saline
  T/C: 107 % of control
dose: 12.0 mg/kg/injection, schedule: Q01DX005 (ip), vehicle: saline
  T/C: 96 % of control

## CCOC(=O)CN1CCC(C(O)c2cc3ccccc3[nH]2)CC1 (centres undefined)
dose: 100.0 mg/kg/injection, schedule: Q01DX001 (ip), vehicle: saline
  T/C: 106 % of control
dose: 200.0 mg/kg/injection, schedule: Q01DX001 (ip), vehicle: saline
  T/C: 110 % of control
dose: 400.0 mg/kg/injection, schedule: Q01DX001 (ip), vehicle: saline
  T/C: 109 % of control

## C=CC(C)(CCC=C(C)C)N=C=O (centres undefined)
dose: 12.5 mg/kg/injection, schedule: Q01DX009 (ip), vehicle: distilled water + Tween-80
  T/C: 100 % of control
dose: 25.0 mg/kg/injection, schedule: Q01DX009 (ip), vehicle: distilled water + Tween-80
  T/C: 91 % of control
dose: 50.0 mg/kg/injection, schedule: Q01DX009 (ip), vehicle: distilled water + Tween-80
  T/C: 105 % of control
dose: 100.0 mg/kg/injection, schedule: Q01DX009 (ip), vehicle: distilled water + Tween-80
  T/C: 114 % of control
dose: 200.0 mg/kg/injection, schedule: Q01DX009 (ip), vehicle: distilled water + Tween-80
  T/C: 108 % of control

## NS(=O)(=O)c1ccc(N=c2c3ccccc3n(Cc3ccccc3)c3ccccc23)cc1
[5]
  T/C: 88 % of control
[6]
  T/C: 94 % of control

## COCC1OC(OC2C3=C(C(C)C)CCC3(C)/C=C3\C(CCC3(O)COC)C(C)C2O)C(O)C2OC3OC12OC3(C)C1CO1 (centres undefined)
dose: 1.5 mg/kg/injection, schedule: Q01DX009 (ip), vehicle: Klucel (hydroxypropylcellulose) (HPC)
  T/C: 96 % of control
dose: 3.0 mg/kg/injection, schedule: Q01DX009 (ip), vehicle: Klucel (hydroxypropylcellulose) (HPC)
  T/C: 113 % of control
dose: 6.0 mg/kg/injection, schedule: Q01DX009 (ip), vehicle: Klucel (hydroxypropylcellulose) (HPC)
  T/C: 91 % of control
dose: 12.0 mg/kg/injection, schedule: Q01DX009 (ip), vehicle: Klucel (hydroxypropylcellulose) (HPC)
  T/C: 97 % of control
dose: 24.0 mg/kg/injection, schedule: Q01DX009 (ip), vehicle: Klucel (hydroxypropylcellulose) (HPC)
  T/C: 100 % of control

## CCc1nc(N)nc(N)c1-c1ccc(Cl)c(S(=O)(=O)O)c1
[2]
  T/C: 103 % of control
[3]
  T/C: 98 % of control
[4]
  T/C: 98 % of control

## CC(=O)Nc1ccc(S(=O)(=O)Nc2ccc([N+](=O)[O-])cc2)cc1
dose: 100.0 mg/kg/injection, schedule: Q04DX003 (ip), vehicle: saline with Tween-80
  T/C: 90 % of control
dose: 200.0 mg/kg/injection, schedule: Q04DX003 (ip), vehicle: saline with Tween-80
  T/C: 86 % of control
dose: 400.0 mg/kg/injection, schedule: Q04DX003 (ip), vehicle: saline with Tween-80
  T/C: 100 % of control
